One test deals with calpain. The test is described as follows: Calpain inhibitor test: Fura-2 and EYFP fluorescence in primary cultures of cerebellum expressing F2C, potassium stimulation. Type of test: cell-based, rat. The conditions noted are these: ALLN 100 μM, ALLM 50 μM; for percentage of F535 EYFP maximum fluorescence change to Fura-2 maximum ratio change versus control free of calpain inhibitors: p>0.28; for percentage of F535 EYFP maximum fluorescence change to Fura-2 maximum ratio change (mean ± S.E.M.): preincubation 1 hr, potassium stimulation, n=10 cells. How it is done: (§1) The primary culture of cerebellum was incubated at 37° C., in 5% CO2 and 95% O2 atmosphere. The cells on a cover glass slip were infected with Sindbis-F2C 24 hrs before the incubation with Fura-2/AM (Molecular Probes, Eugene, Oregon, U.S.A.). This glass slip was transferred to a new dish filled with an external solution (ACSF, artificial cerebro-spinal fluid; 155 mM NaCl, 2.5 mM CaCl2, 1 mM MgCl2, 10 mM, HEPES, 17 mM glucose and 5 mM KOH and adjusted to pH 7.4). Fura-2/AM was added to a final concentration of 20 μM, and further incubated for 30 min at 37° C. Fura-2/AM (10 mM) stock was dissolved in DMSO. Cerebella cultures were transferred under the upright microscope equipped with a cooled CCD camera, and the image was prepared (ORCA-ER on Aquacosmos, Hamamatsu Photonics, Hamamatsu, Japan). For Fura-2 imaging, excitation light at wavelength 340 nm (10 nm band widths, 100% transmission) and excitation light at wavelength 380 nm (10 nm band widths, 100% transmission) were alternately applied, and fluorescence was captured at 510 nm and at longer wavelength. When F2C fluorescence was measured simultaneously, excitation light at 440 nm (10 nm band widths, 100% transmission) was applied and the fluorescence at a wavelength longer than 510 nm was captured. This fluorescence corresponds to EYFP. When FRET was measured from brain slice preparations or from cerebella cultures, neurons were excited at 440 nm (20 nm band width 60% transmission, XF1071 Omega Optical) with a dichroic mirror at 435 ram (XF2034 Omega Optical) and the fluorescence was monitored through 480 nm (30 nm bandwidth 75% transmission, XF3075 Omega Optical) for ECFP and 535 nm (25 nm bandwidth 70% transmission, XF3079 Omega Optical+50% ND filter) for EYFP.
To test the inhibition of calpain activities, calpain inhibitor-1 (ALLN, Calbiochem) and calpain inhibitor-2 (ALLM, Calbiochem) were adopted and Fura-2 fluorescence and EYFP fluorescence measurements were similarly conducted. The primary cultures of cerebellum were preincubated in ACSF containing ALLN (100 μM in DMSO), ALLM (50 μM in DMSO) or a combination of both for 1 hr. The same concentration of DMSO was added to ACSF as a control.

Test [1] deals with cochlear nucleus neurons in brain slices. The test is described as follows: FRET fluorescence ratio (ECFP/EYFP) in cochlear nucleus neurons of brain-stem slices after in vivo Sindbis injection, KCl stimulation. The format is cell-based, rat. Here is the method:
Young Wistar rats (9-10 days old) were anesthetized with chloral hydrate (0.3 mg/g body weight). Then, the head of rat was fixed on a stereotaxis stage with a pair of ear bars and a nose clamp (SR-5N, Narishige, Tokyo, Japan). The head skin was sagittally incised and a small hole was made through the skull to expose the cerebellum. A micropipette was inserted through cerebellum, and a suspension of Sindbis virus encoding F2C protein (Sindbis-F2C) was injected (0.5-1 μl) into the brainstem by applying a mild positive pressure to the micropipette with the mouth. The incised part of the skin was then sutured and the rat was returned to the mother after recovery from anesthesia. […]
(§2) The primary culture of cerebellum was incubated at 37° C., in 5% CO2 and 95% O2 atmosphere. […] For Fura-2 imaging, excitation light at wavelength 340 nm (10 nm band widths, 100% transmission) and excitation light at wavelength 380 nm (10 nm band widths, 100% transmission) were alternately applied, and fluorescence was captured at 510 nm and at longer wavelength. When F2C fluorescence was measured simultaneously, excitation light at 440 nm (10 nm band widths, 100% transmission) was applied and the fluorescence at a wavelength longer than 510 nm was captured. This fluorescence corresponds to EYFP. […]

The target of another test is T1, μ-calpain (Homo sapiens, UniProt P07384).
T1 construct: purchased Calbiochem
T1 sequence (P07384 1-714): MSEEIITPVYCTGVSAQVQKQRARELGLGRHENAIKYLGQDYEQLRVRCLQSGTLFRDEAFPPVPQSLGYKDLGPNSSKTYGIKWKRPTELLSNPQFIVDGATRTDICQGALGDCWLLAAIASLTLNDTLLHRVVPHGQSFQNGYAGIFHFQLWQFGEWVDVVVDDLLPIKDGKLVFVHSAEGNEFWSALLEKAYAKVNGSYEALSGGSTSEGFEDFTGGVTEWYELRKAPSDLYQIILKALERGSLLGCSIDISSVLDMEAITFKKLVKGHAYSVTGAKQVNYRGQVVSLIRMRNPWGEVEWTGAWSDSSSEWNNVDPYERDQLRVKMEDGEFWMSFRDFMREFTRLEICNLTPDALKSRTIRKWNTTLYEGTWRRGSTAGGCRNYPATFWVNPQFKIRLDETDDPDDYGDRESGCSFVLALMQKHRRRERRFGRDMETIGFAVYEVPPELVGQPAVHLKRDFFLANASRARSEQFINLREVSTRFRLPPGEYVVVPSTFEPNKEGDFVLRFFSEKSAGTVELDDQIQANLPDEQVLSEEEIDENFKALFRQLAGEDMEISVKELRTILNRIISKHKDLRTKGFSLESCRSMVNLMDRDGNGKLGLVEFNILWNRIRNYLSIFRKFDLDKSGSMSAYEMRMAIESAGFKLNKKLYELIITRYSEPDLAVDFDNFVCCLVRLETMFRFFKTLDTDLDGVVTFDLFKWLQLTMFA
T1 sequence (P04632 1-268 partner): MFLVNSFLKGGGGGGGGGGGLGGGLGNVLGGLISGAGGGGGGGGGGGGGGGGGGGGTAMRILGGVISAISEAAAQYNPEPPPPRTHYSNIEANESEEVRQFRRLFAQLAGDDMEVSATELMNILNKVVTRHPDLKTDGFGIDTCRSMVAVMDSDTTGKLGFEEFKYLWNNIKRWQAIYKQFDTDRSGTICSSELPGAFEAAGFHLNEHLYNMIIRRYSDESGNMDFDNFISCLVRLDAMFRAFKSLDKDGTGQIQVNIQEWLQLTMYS
The test is described as follows: Western blotting for cleavage of the fusion protein by calpain. Type of test: biochemical. The conditions noted are these: incubated with purified μ-calpain in Ca-EGTA buffer (data not shown). Here is the method:
To obtain cell lysate, cells were pelletized and homogenized in EGTA buffer (10 mM EGTA-Na, 10 mM HEPES-K, 150 mM NaCl) or Ca-EGTA buffer (10 mM CaCl2, 10 mM EGTA-Na, 10 mM HEPES-K, 150 mM NaCl). The Ca^2+ concentration was finally adjusted to 20 μM. The cell lysates contained the protease inhibitor cocktail (Nacalai Tesque). The cell lysates were incubated at 30° C. for 30 min or 60 min. In some experiments, cell lysates were incubated with a purified μ-calpain (Calpain I, Calbiochem, California, U.S.A.) at 30° C. for 30 min or 60 min. These cell lysates were centrifuged at 20,000×g for 20 min and the supernatants were fractionated. The supernatants were loaded onto 10% SDS-PAGE gels. Western blotting was carried out according to the method of Towbin et al. (Towbin, H. et al., Proc. Natl. Acad. Sci. U.S.A., 76, 4350-4354, 1979), using mouse anti-GFP antibody for detecting F2C cleavage (dilution rate 1:1000, MBL, Nagoya, Japan) and anti-PKC α antibody (dilution rate 1:500, Upstate, N.Y., U.S.A.) to confirm calpain activity.
On the technique in general: A western blot detects proteins with antibodies after separation by electrophoresis.

For the next test, the system named is Ca^2+. Put plainly: Simultaneous Fura-2 and F2C fluorescence measurement, Ca2+ titration and kinetics. Type of test: cell-based, rat. Here is the method: as §1
Rmax=2.38 and Rmin=0.58 were obtained by measurement from the Purkinje cell membrane loaded with Fura-2 perforated with 1 μM ionomycin, after equilibration with normal ACSF ([…]) for Rmax and equilibration with 0 mM CaCl2, 10 mM EGTA ACSF for Rmin. […]

The test system of test [2] is cerebellar Purkinje cells. Put plainly: FRET fluorescence ratio (ECFP/EYFP) in cultured Purkinje cells expressing the indicator, KCl stimulation. The format is cell-based, rat. Here is the method: Purkinje cells were cultured in the same manner as reported previously (Weber, A. et al., Brain Res., 311, 119-130, 1984/Hirano, T. et al., Proc. Natl. Acad. Sci. U.S.A., 83, 1945-1949, 1986). In short, cerebella were dissected from Wistar rat fetus (about 20 days of fetal stage), and meninges were removed. The cerebella were incubated at 20° C. for 4 min in 1% trypsin (Invitrogen, California, U.S.A.)/0.05% DNase (Sigma, Missouri, U.S.A.) solution containing 137 mM NaCl, 5 mM KCl, 7 mM Na2PO4, and 25 mM HEPES (pH 7.2). After washing with Ca^2+- and Mg^2+-free Hanks' balanced salt solution (Invitrogen) three times, the tissue was dispersed by trituration with a fire polished Pasteur pipette in Ca^2+-free Hanks' balanced salt solution containing 0.05% DNase and 12 mM MgSO4. The cell suspension was centrifuged at 180×g at room temperature and the pelletized cells were resuspended at a concentration of 10^6 cells per 1 ml in a defined medium, which facilitates the survival of neurons (Weber, A. et al., Brain Res., 311, 119-130, 1984/Fischer, G. et al., Neurosci Lett, 28, 325-329, 1982). 2 ml of this cell suspension was plated on a Petri dish containing several heat-sterilized glass coverslips coated with 0.01% poly-L-lysin (Sigma). This cell culture was incubated at 37° C. in 5% CO2. The cells on the glass coverslips were used for infection with Sindbis virus. […]
as §2

Square brackets hold non-standard residues; d marks the D form. Peptide text beside a SMILES is read from it. Nle = CCCC[C@H](N)C(=O)O

`CCCC[C@@H](C=O)NC(=O)[C@H](CC(C)C)NC(=O)[C@H](CC(C)C)NC(C)=O` [ALLN] (Ac-Leu-Leu-[Nle]-aldehyde): in the test with calpain, the “percentage of F535 EYFP maximum fluorescence change to Fura-2 maximum ratio change versus control free of calpain inhibitors” value is “not different” and the “percentage of F535 EYFP maximum fluorescence change to Fura-2 maximum ratio change (mean ± S.E.M.)” value stood at 37.1 ± 2.1%.
The corresponding values for `CSCC[C@@H](C=O)NC(=O)[C@H](CC(C)C)NC(=O)[C@H](CC(C)C)NC(C)=O` [ALLM] (Ac-Leu-Leu-Met-aldehyde) are “not different” and 35.9 ± 1.4%.
The term Hill coefficient denotes the slope factor of the fitted curve. As to “F2C: Fusion protein (SEQ ID NO:6): GAP43 palmitoylation signal, ECFP, two α-spectrin calpain sensitive sequences, EYFP”, the “time over which reversible changes of the ECFP/EYFP fluorescence ratio were observed” value in test [1] (10 mM KCl stimulation, cochlear nucleus neurons, FIG. 9) is “at least 200 min”. Also, the “change of FRET fluorescence ratio on exposure to high KCl solution” value in test [1] (brainstem slices, 15 mM KCl applied 3 times) is reported as “changed reversibly”. In the test with μ-calpain, the “fragmented protein signal in Western blot (cleavage by calpain)” value is given as “not detected”. The “speed of Ca^2+ response (20-80% rise time of F535) compared with Fura-2 (F340/F380)” value with Ca^2+ (n=240 cells, various CaCl2 and KCl conditions) was “almost the same speed”. In the test on Ca^2+ (titration of F2C, pH 7.4), the Hill coefficient is given as 4. At Ca^2+ (titration of F2C, pH 7.4, read-out: apparent Kd value for Ca^2+), the Kd was 150 nM. In addition, the “ECFP/EYFP fluorescence ratio change” value came out at 1.03 fold in test [2] (Purkinje cells 14DIV exposed to 7.5 mM KCl (basal 5 mM)), 1.39 fold in test [2] (Purkinje cells 14DIV exposed to 10 mM KCl (basal 5 mM)) and 1.78 fold in test [2] (Purkinje cells 14DIV exposed to 15 mM KCl (basal 5 mM)).

Source of the values: patent US7713713B2, “Polypeptide having intracellular calcium ion indicator function” (Kyoto University, priority 2005, dated 2010).
